The text below walks through data of patent publication US7776872B2, “Diaminopyrimidines as P2X3 and P2X2/3 modulators” (Roche Palo Alto LLC, priority 2005, dated 2010).

Molecules are shown by their SMILES.

The target of one data set is T1, rat P2X3 receptor (Rattus norvegicus, UniProt P49654).
T1 construct: expressed in transfected cells; host or cells: CHO-K1
T1 sequence (P49654 1-397): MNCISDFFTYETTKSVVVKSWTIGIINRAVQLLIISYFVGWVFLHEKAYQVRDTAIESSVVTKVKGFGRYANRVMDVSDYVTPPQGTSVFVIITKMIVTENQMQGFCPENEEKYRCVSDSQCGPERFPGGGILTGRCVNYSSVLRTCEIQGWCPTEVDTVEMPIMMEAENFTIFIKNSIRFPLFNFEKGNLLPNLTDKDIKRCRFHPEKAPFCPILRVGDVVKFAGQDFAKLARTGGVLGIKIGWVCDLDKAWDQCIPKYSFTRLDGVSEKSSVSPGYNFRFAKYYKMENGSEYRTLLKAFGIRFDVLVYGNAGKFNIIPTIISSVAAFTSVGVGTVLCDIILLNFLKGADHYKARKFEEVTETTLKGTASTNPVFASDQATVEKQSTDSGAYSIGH
Briefly: P2X3 FLIPR (Fluorometric Imaging Plate Reader) assay, CHO-K1 cells. Format: cell-based. The note with it: CHO-K1 cells transfected with rat P2X3; agonist α,β-meATP 1 μM; Fluo-3 calcium fluorescence. The procedure: (§1) CHO-K1 cells were transfected with cloned rat P2X3 or human P2X2/3 receptor subunits and passaged in flasks. 18-24 hours before the FLIPR experiment, cells were released from their flasks, centrifuged, and resuspended in nutrient medium at 2.5×10^5 cells/ml. The cells were aliquoted into black-walled 96-well plates at a density of 50,000 cells/well and incubated overnight in 5% CO2 at 37° C. On the day of the experiment, cells were washed in FLIPR buffer (calcium- and magnesium-free Hank's balanced salt solution, 10 mM HEPES, 2 mM CaCl2, 2.5 mM probenecid; FB). Each well received 100 μl FB and 100 μl of the fluorescent dye Fluo-3 AM [2 μM final conc.]. […]
(§2) Test compounds (dissolved in DMSO at 10 mM and serially diluted with FB) or vehicle were added to each well (25 μl of a 4X solution) and allowed to equilibrate for 20 minutes at room temperature. The plates were then placed in the FLIPR and a baseline fluorescence measurement (excitation at 488 nm and emission at 510-570 nm) was obtained for 10 seconds before a 100 µl/well agonist or vehicle addition. […] Fluorescence was measured for an additional 2 minutes at 1 second intervals after agonist addition. A final addition of ionomycin (5 μM, final concentration) was made to each well of the FLIPR test plate to establish cell viability and maximum fluorescence of dye-bound cytosolic calcium. […]

For the next data set, the target named is T2, human P2X2/3 receptor (Homo sapiens, UniProt P56373+Q9UBL9).
T2 construct: expressed in transfected cells; host or cells: CHO-K1
T2 sequence (Q9UBL9 1-471): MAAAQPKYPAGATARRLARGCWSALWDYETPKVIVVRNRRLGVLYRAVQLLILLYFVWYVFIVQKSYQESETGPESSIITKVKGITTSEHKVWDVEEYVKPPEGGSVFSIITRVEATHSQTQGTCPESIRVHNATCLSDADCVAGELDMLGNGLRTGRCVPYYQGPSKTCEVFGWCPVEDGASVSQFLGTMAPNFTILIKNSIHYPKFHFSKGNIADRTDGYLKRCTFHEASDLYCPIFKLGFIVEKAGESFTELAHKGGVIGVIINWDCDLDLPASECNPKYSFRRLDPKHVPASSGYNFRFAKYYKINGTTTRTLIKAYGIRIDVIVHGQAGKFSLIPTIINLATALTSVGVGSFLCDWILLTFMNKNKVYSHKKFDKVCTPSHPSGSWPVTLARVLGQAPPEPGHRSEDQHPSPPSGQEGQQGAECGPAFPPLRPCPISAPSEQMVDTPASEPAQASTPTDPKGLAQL
T2 sequence (P56373 1-397): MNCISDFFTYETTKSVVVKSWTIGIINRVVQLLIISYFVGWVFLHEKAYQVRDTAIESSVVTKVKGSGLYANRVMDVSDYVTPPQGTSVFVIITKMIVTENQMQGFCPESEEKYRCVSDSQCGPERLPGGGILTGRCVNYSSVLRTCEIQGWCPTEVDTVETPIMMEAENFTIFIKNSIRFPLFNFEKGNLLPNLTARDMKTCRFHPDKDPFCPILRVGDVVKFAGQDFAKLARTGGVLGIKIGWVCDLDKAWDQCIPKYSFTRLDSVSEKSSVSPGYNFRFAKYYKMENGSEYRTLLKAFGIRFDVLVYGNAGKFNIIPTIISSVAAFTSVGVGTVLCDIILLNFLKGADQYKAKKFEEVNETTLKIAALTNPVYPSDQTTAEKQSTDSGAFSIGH
As to the kind of experiment: P2X2/3 FLIPR (Fluorometric Imaging Plate Reader) assay, CHO-K1 cells. The following applies: CHO-K1 cells transfected with human P2X2/3; agonist α,β-meATP 5 μM; Fluo-3 calcium fluorescence. The data set is classed as cell-based. How it is done:
as §1, §2

As a reminder, the melting point is the temperature, or range, at which the solid turns liquid. In turn, `CC(C)c1cc2ncccc2cc1Oc1cnc(NC(CO)CO)nc1N` [Compound 11, 2-[4-Amino-5-(7-isopropyl-quinolin-6-yloxy)-pyrimidin-2-ylamino]-propane-1,3-diol] came in with a melting point of 171.9 to 174.4 °C. Same read-out and setting: as for `COc1ccc2cc(Oc3cnc(N)nc3N)c(C(C)C)cc2c1` [Compound 4, 5-(3-Isopropyl-6-methoxy-naphthalen-2-yloxy)-pyrimidine-2,4-diamine], the figure is 170 to 172 °C.

Turning to `CC(C)c1cc2ncccc2cc1Oc1cnc(N)nc1N` [5-(7-Isopropyl-quinolin-6-yloxy)-pyrimidine-2,4-diamine], the melting point was 206.9 to 208.2 °C. At rat P2X3 receptor, the “pIC50 for the P2X3 receptor” value is listed as “approximately 7.42”. On human P2X2/3 receptor, the “pIC50 for the P2X2/3 receptor” value is “approximately 7.30”. In the case of `Cc1cccc2cc(C(C)C)c(Oc3cnc(N)nc3N)cc12` [Compound 1, 5(3-Isopropyl-8-methyl-naphthalen-2-yloxy)-pyrimidine-2,4-diamine], the melting point worked out at 148 °C.

Regarding `CC(C)c1cc2cccnc2cc1Oc1cnc(N)nc1N` [Compound 9, 5-(6-lsopropyl-quinolin-7-yloxy)-pyrimidine-2,4-diamine], the melting point was 276.3 to 278 °C.
